Data published in US4150029A, “3-Aryl 2-oxazolidinones, their process of preparation and their therapeutical application” (Delalande S.A., priority 1976, dated 1979).
Like-named read-outs stand apart in the source and are kept apart here.

How the values were obtained:
[1] = test system: generalised trembling caused by an intraperitoneal injection of dl-5-hydroxytryptophane; assay: Test A: potentiation of generalised trembling caused by dl-5-hydroxytryptophane in the mouse; format: in vivo; details: po, read-out: Test A 50 DE
Experimental: Potentiation in a mouse of generalised trembling caused by an intraperitoneal injection (200 mg/kg) of dl-5-hydroxytryptophane, according to the mode of operation described by GOURET C. and RAYNAUD G. in the J. Pharmacol. (PARIS), (1974), 5, 231.

[2] = test system: ptosis observed one hour after an intravenous injection of reserpine; assay: Test B: antagonism of reserpine-induced ptosis in the mouse; format: in vivo; details: po, 1 h, p.o., reserpine 2 mg/kg i.v., read-out: Test B 50 DE
Experimental: Antagonism in relation to ptosis observed one hour after an intravenous injection (2 mg/kg) of reserpine was given to a mouse, according to the mode of operation described by GOURET C. and THOMAS J. in J. Pharmacol. (PARIS), (1973), 4, 401.

[3] = test system: pontogeniculo-occipital points (P.G.O.) caused by reserpine; assay: Test C: diminution in density of reserpine-induced pontogeniculo-occipital (P.G.O.) points in the cat; format: in vivo; details: Felis catus, po, reserpine 0.5 mg/kg, read-out: Test C 50 DE
Experimental: Diminution in the density of pontogeniculo-occipital points (P.G.O.) caused by injecting a cat with 0.5 mg/kg of reserpine, according to the mode of operation described by COSTON A. and GOURET C. in J. Pharmacol. (PARIS), (1976), 7, 409.

Acute toxicity in mice = details: mouse, in vivo, po; for LD50: acute toxicity, read-out: 50 DL
[4] = mouse, p.o., dl-5-hydroxytryptophane 200 mg/kg i.p.

Row | SMILES | ED50 [1, 4] [mg/kg] | ED50 [2] [mg/kg] | ED50 [3] [mg/kg] | LD50 (Acute toxicity in mice) [mg/kg] | ED50 ([1]; Mus musculus) [mg/kg] | mortality (Acute toxicity in mice; dose administered 2000 mg/kg/p.o.) [%] | mortality (Acute toxicity in mice; dose administered 1000 mg/kg/p.o.) [%]
1 | N#Cc1ccc(N2CC(CO)OC2=O)cc1 (centres unmarked) [compound 760271] | 20 | 11 | 11 | 1050 | – | – | –
2 | CNC(=O)OCC1CN(c2cccc(C(F)(F)F)c2)C(=O)O1 (centres unmarked) [compound 740704] | – | 12 | 52 | – | 42 | 0 | –
3 | CN(C)c1ccc(N2CC(CO)OC2=O)cc1 (centres unmarked) [compound 760133] | 11 | 7.2 | 4.5 | – | – | – | –
4 | O=C1OC(CO)CN1c1ccc(OCc2ccc([N+](=O)[O-])cc2)cc1 (centres unmarked) [compound 760622] | 5.5 | 2.1 | 40 | – | – | – | –
5 | CC#CCOc1ccc(N2CC(CO)OC2=O)cc1 (centres unmarked) [compound 760877] | 25 | 25 | 5.6 | – | – | – | –
6 | O=C1OC(CO)CN1c1ccc(OCc2ccccc2)cc1 (centres unmarked) [compound 760167, 5-hydroxymethyl 3-p-benzyloxyphenyl 2-oxazolidinone] | 9.5 | 3.3 | 15.2 | > 2000 | – | – | –
7 | CNC(=O)OCC1CN(c2ccc(OCc3ccc(F)cc3)cc2)C(=O)O1 (centres unmarked) [compound 760717] | – | 12.5 | > 50 | – | > 12.5 | – | –
8 | CC(C)NC(=O)OCC1CN(c2cccc(C(F)(F)F)c2)C(=O)O1 (centres unmarked) [compound 740711] | 19 | 26 | – | – | – | – | 0
9 | N#CCOc1ccc(N2CC(CO)OC2=O)cc1 (centres unmarked) [compound 760651, 5-hydroxymethyl 3-p-cyanomethyloxyphenyl 2-oxazolidinone] | 5.5 | 2.5 | 1.5 | – | – | – | –
10 | Cc1cccc(N2CC(CO)OC2=O)c1 (centres unmarked) [TOLOXATONE, reference compound] | 60 | 50 | 28 | 1850 | – | – | –
11 | O=C1OC(CO)CN1c1ccc(SC2CCCCC2)cc1 (centres unmarked) [compound 760621] | 100 | 42 | 40 | – | – | – | –
12 | CCOc1ccc(N2CC(CO)OC2=O)cc1 (centres unmarked) [compound 760037] | 16 | 40 | 5.4 | > 2000 | – | – | –
13 | O=C1OC(CO)CN1c1ccc(OCc2cccc(Cl)c2)cc1 (centres unmarked) [compound 760548] | 4.4 | 3.4 | 33.5 | – | – | – | –
14 | C/C=C/COc1ccc(N2CC(CO)OC2=O)cc1 (centres unmarked) [compound 760827] | 15 | 10 | 5.2 | – | – | – | –
15 | CCCCSc1ccc(N2CC(CO)OC2=O)cc1 (centres unmarked) [compound 760473] | 41 | 22 | 11.5 | – | – | – | –
16 | CNC(=O)OCC1CN(c2ccc(OCc3ccccc3)cc2)C(=O)O1 (centres unmarked) [compound 760409] | – | 7 | > 50 | – | 100 | – | –
17 | CC(C)COc1ccc(N2CC(CO)OC2=O)cc1 (centres unmarked) [compound 760414] | 13 | 3 | 5.5 | – | – | – | –
18 | CCN(CC)c1ccc(N2CC(CO)OC2=O)cc1 (centres unmarked) [compound 760311] | 27 | 32 | 9 | – | – | – | –

Row | SMILES | ED50 [1, 4] [mg/kg] | ED50 [2] [mg/kg] | ED50 [3] [mg/kg] | LD50 (Acute toxicity in mice) [mg/kg] | ED50 ([1]; Mus musculus) [mg/kg] | mortality (Acute toxicity in mice; dose administered 2000 mg/kg/p.o.) [%] | mortality (Acute toxicity in mice; dose administered 1000 mg/kg/p.o.) [%]
19 | O=C1OC(CO)CN1c1ccc([N+](=O)[O-])cc1 (centres unmarked) [compound 740564] | 38 | 42 | 16 | > 1000 | – | – | –
20 | CNC(=O)OCC1CN(c2ccc(SC)cc2)C(=O)O1 (centres unmarked) [compound 760786] | – | 40 | 25.5 | – | > 50 | – | –
21 | CCSc1ccc(N2CC(CO)OC2=O)cc1 (centres unmarked) [compound 760466] | 40 | 32 | 8.25 | – | – | – | –
22 | O=C1OC(CO)CN1c1ccc(OCCc2ccccc2)cc1 (centres unmarked) [compound 760317] | 25 | 17 | 45 | – | – | – | –
23 | O=C1OC(CO)CN1c1ccc(OC2CCCCC2)cc1 (centres unmarked) [compound 760314] | 19 | 18 | 12 | – | – | – | –
24 | O=C1OC(CO)CN1c1ccc(OCc2ccc(Cl)cc2)cc1 (centres unmarked) [compound 760337] | 6 | 5 | 120 | – | – | – | –
25 | CC(=O)COc1ccc(N2CC(CO)OC2=O)cc1 (centres unmarked) [compound 760652] | 7.1 | 2.8 | 13 | – | – | – | –
26 | CCCCOc1ccc(N2CC(CO)OC2=O)cc1 (centres unmarked) [compound 760304] | 5 | 5 | 6.1 | > 2000 | – | – | –
27 | O=C1OC(CO)CN1c1cccc(Br)c1 (centres unmarked) [compound 750710] | 62 | 100 | 14 | – | – | – | –
28 | O=C1OC(CO)CN1c1ccc(OCc2ccc(F)cc2)cc1 (centres unmarked) [compound 760432] | 3.8 | 2 | 24 | – | – | – | –
29 | CNC(=O)OCC1CN(c2ccc(OCc3cccc(Cl)c3)cc2)C(=O)O1 (centres unmarked) [compound 760729] | – | 23 | 50 | – | > 12.5 | – | –
30 | O=C1OC(CO)CN1c1ccc(N2CCCC2)cc1 (centres unmarked) [compound 760474] | 42 | 68 | 14 | – | – | – | –
31 | CNC(=O)OCC1CN(c2ccc(C(C)=O)cc2)C(=O)O1 (centres unmarked) [compound 760731] | – | 15 | 17.5 | – | > 25 | – | –
32 | CNc1ccc(N2CC(CO)OC2=O)cc1 (centres unmarked) [compound 760395, 5-hydroxymethyl 3-p-N-methylaminophenyl 2-oxazolidinone] | 39 | 28 | 160 | – | – | – | –
33 | Cc1ccccc1COc1ccc(N2CC(CO)OC2=O)cc1 (centres unmarked) [compound 760537] | 35 | 17 | 37.5 | – | – | – | –
34 | C#CCOc1ccc(N2CC(COC(=O)NC)OC2=O)cc1 (centres unmarked) [compound 760658] | – | 27 | 13.9 | – | > 12.5 | – | –
35 | CSc1ccc(N2CC(CO)OC2=O)cc1 (centres unmarked) [compound 760082] | 22 | 18 | 8.4 | > 2000 | – | – | –
36 | CC(C)Oc1ccc(N2CC(CO)OC2=O)cc1 (centres unmarked) [compound 760116] | 60 | 50 | 15 | – | – | – | –
